Laboratory results: patent US20230391817A1, “5ALPHA-HYDROXY-6BETA-[2-(1-H-IMIDAZOL-4-YL)-ETHYLAMINO]-CHOLESTAN-3BETA-OL ANALOGUES AND PHARMACEUTICAL COMPOSITIONS COMPRISING SAME FOR USE IN THE TREATMENT OF CANCER” (priority 2020, published 2023)
pIC50: −log10 of the molar value. Like-named read-outs stand apart in the source and are kept apart here.

Assays:
MCF-7 breast tumor cells = test: cells; type: cell-based; conditions: for cell viability in MTT compared with the control: 1, 2.5 or 5 μM, 48 h; for viability at 5 µM: Homo sapiens, MCF7, 48 h, read-out: percentage of cell viability relative to the control group
Method: A cell viability test was performed on MCF-7 (Michigan Cancer Foundation-7) breast tumor cells […] (ER(+) cells).
The MCF-7 cells are in a cell culture medium identical to that of Example 5 and are seeded in 12-well plates at 50 000 cells per well. 24 hours after seeding, the cells are treated with vehicle solvate comprising water and ethanol with a 1% o ratio of ethanol, 3β-fluoro-5α-hydroxy-6β-[2-(1H-imidazol-4-yl)ethylamino]cholestane, and 5α-hydroxy-6β-[2-(1H-imidazol-4-yl)ethylamino]cholestan-3β-ol at 1, 2.5 or 5 μM. The cells are observed under an inverted microscope and photographed via the microscope camera at 24 h and 48 h. The morphological changes in the cells at 1 μM are very small. […] The effects are more marked at 2.5 μM and 5 μM with an increase in the number of dead cells. […] After 24 h of treatment with 3β-fluoro-5α-hydroxy-6β-[2-(1H-imidazol-4-yl)ethylamino]-cholestane at 5 μM, 99% of the observed cells are supernatant, reflecting cell death, and 1% of the cells are adherent and show white vesicles. […] The cytostatic effect is illustrated by an inhibition of cell proliferation.
The cell viability is measured by labeling with MTT at 48 hours. This test is based on the use of the tetrazolium salt MTT (3-(4,5-dimethylthiazol-2-yl)-2,5-diphenyltetrazolium bromide). Tetrazolium is reduced by mitochondrial succinate dehydrogenase in active living cells to formazan, a purple colored precipitate. The amount of precipitate formed is proportional to the amount of living cells but also to the metabolic activity of each cell. Thus, a simple determination of the optical density at 540 nm by spectroscopy makes it possible to determine the relative amount of living and metabolically active cells. After 48 hours, the medium is aspirated, and the cells are washed with phosphate-buffered saline (PBS) and then incubated with MTT (0.5 mg/ml in PBS) for about 2 hours. The MTT solution is aspirated and the purple crystals are dissolved in dimethyl sulfoxide (DMSO). The OD (optical density) is measured at 540 nm.
The control group is prepared in a similar manner to the groups studied without the addition of the molecules studied in the present text. […] For a concentration of 5 μM, the viability is close to 0%. This reflects the ability of the compound of formula (I) to kill mammary tumor cells.

[1] = system: murine 4T1 mammary tumor cells; test: Cell viability of 4T1 cells, LDH; type: cell-based; conditions: Mus musculus, 4T1, LDH, 48 h; for IC50: log of IC50 in μM, read-out: Mean LogIC50 (±SEM) (converted); for pIC50: read-out: IC50
Method: Cell viability tests were performed on murine 4T1 mammary tumor cells characterized as triple negative (HER2-, ER-, PR-).
For this experiment, a cell culture medium was prepared. The culture medium consisted of Dulbecco's Modified Eagle Medium (DMEM, sold by Westburg as LO BE12-604F), comprising 4.5 g/L glucose with L-glutamine, to which 10% fetal calf serum (FCS) and 50 U/ml penicillin/streptomycin are added. The 4T1 cells were introduced into this culture medium.
96-well plates were seeded with 2000 4T1 cells per well. After 72 hours (h) of culture under normal condition, i.e. in an incubator at 37° C. at […], the 4T1 cells were treated for 48 h with DX101, DX103, DX111, DX123, DX125, DX127 and DX129 at 100 nM, 1 μM, 2.5 μM and 10 μM. A control condition (CTL) is also performed in parallel using the previously described protocol without treatment with the molecules DX101, DX103, DX111, DX123, DX125, DX127 or DX129.
(§1) For the second method, the percentage of viability is determined by assaying the activity of the enzyme LDH (lactate dehydrogenase) in cell supernatants using the non radioactive cytotoxicity assay kit (Promega). LDH is an enzyme released in the supernatant of dead cells. The higher the LDH activity in the supernatant, the greater the cell death. In this enzyme assay, the LDH released converts a violet tetrazolium salt to a red colored formazan, absorbing at 490 nm. The intensity of the red color is proportional to the number of dead cells. After 48 h of treatment, the supernatants are transferred to a new 96-well plate and incubated for 30 minutes in the presence of substrate mix at room temperature. The reaction is stopped with stop solution reagent and the absorbance is determined at 490 nm. The percentage of cell death is determined here using a 100% maximum LDH activity control (made from untreated cells incubated in the presence of lysis solution for 45 minutes at 37° C. just prior to addition of the substrate mix), and the cell viability in each well is then deduced from this percentage. The IC50 is then determined as explained in the preceding paragraph.

[2] = Oral pharmacokinetic study in rat, LC/MS assay in plasma (Examples 21-24); type: in vivo; conditions: 50 mg/kg
Method: The following study is an LC/MS assay in plasma of the various molecules over 3 days (11 measurement points in the end). The graphs are always presented in comparison with DX101 which is the reference.
Plasma sampling at 0 (without injection), 5, 10, 15, 30 min, 1 h, 4 h, 8 h, 24 h, 48 h, 72 h (11 points)

[3] = system: BT-474 human mammary tumor cells; test: Cell viability of BT-474 cells, LDH; type: cell-based; conditions: BT-474, LDH, 48 h; for Mean LogIC50 (±SEM): log of IC50 in μM; for pIC50: Homo sapiens
Method: as §1
Cell viability tests were also performed on BT-474 human mammary tumor cells (characterized as triple positive HER2+, ER+, PR+). The BT-474 cells were in a cell culture medium identical to the previous example and seeded in 24-well plates at 70 000 cells per well for cell viability determination using trypan blue, or in 96-well plates at 13 000 cells per well for cell viability determination using the MTT or LDH assay. After 96 hours (h) of culture under normal conditions, i.e. in an incubator at 37° C. with […], BT-474 cells were treated for 48 h with DX101, DX103, DX105, DX111, DX123 and DX127 at 100 nM, 1 μM, 2.5 μM and 10 μM. A control is also performed using the protocol described previously without treatment with DX101, DX103, DX105, DX111, DX123 and DX127.
After a 10-minute trypsin digestion at 37° C., the cell survival was also quantified by means of a trypan blue test with automatic counting using the Biorad TC20 machine (TC20™ Automated Cell Counter). The trypan blue test is based on the integrity of cell membranes, which is disrupted in the dead cells. Trypan blue stains dead cells blue. The Biorad TC20 cell counter counts the proportion of blue and non-blue cells, and reports the percentage of cells. The percentage of viability is then determined in each well relative to the untreated cells and the IC50 is determined as explained in the preceding example. Also, the percentage viability of the BT-474 cells was determined using the MTT and LDH assay, performed as described in the preceding example.

For `CC(C)CCC[C@@H](C)[C@H]1CC[C@H]2[C@@H]3C[C@@H](NCCc4c[nH]cn4)[C@@]4(O)C[C@@H](O)CC[C@]4(C)[C@H]3CC[C@]12C` [DX101, 5α-hydroxy-6β-[2-(1H-imidazol-4-yl)ethylamino]cholestan-3β-ol, reference compound], the “cell viability in MTT compared with the control” value (MCF-7 breast tumor cells) was “dose-dependent decrease”, the viability at 5 µM (MCF-7 breast tumor cells) was roughly 0% and the IC50 [1] was 3.24 µM. For the same compound, the pIC50 [1] was 5.49, the “Area under the curve” value ([2]; oral, plasma, Example 24) was 3019 and the Max concentration ([2]; oral, plasma, Example 24) was 150 nM. The “Area under the curve” value ([2]; oral, plasma, Examples 21-23) was 143297, the Max concentration ([2]; oral, plasma, Examples 21-23) was 140 nM and the “Mean LogIC50 (±SEM)” value [3] was 1.03 ± 0.06. The pIC50 [3] was 4.97.

For `CC(C)CCC[C@@H](C)[C@H]1CC[C@H]2[C@@H]3C[C@@H](NCCc4c[nH]cn4)[C@@]4(O)C[C@@H](F)CC[C@]4(C)[C@H]3CC[C@]12C` [DX111, 3β-fluoro-5α-hydroxy-6β-[2-(1H-imidazol-4-yl)ethylamino]cholestane], the “cell viability in MTT compared with the control” value (MCF-7 breast tumor cells) was “dose-dependent decrease”, the viability at 5 µM (MCF-7 breast tumor cells) was roughly 0% and the IC50 [1] was 1.86 µM. The pIC50 [1] was 5.73, the “Area under the curve” value ([2]; in vivo, po) was 368921 and the Max concentration ([2]; in vivo, po) was 515 nM. For the same compound, the “Time for Cmax” value ([2]; in vivo, po) was 240 min, the “bioavailability / extent of absorption compared with DX101” value ([2]; in vivo, po) was “three-fold higher absorption” and the “maximum concentration compared with DX101” value ([2]; in vivo, po) was “higher maximum concentration”. The “speed of absorption compared with DX101” value ([2]; in vivo, po) was “faster absorption”, the “Mean LogIC50 (±SEM)” value [3] was 0.89 ± 0.04 and the pIC50 [3] was 5.11.
